Laboratory results reported in patent US9211264B2, “Coated drug spheroids and uses thereof for eliminating or reducing conditions such as emesis and diarrhea” (Wyeth LLC, priority 2009, dated 2015).
Where a name gives a salt, the structure may show the parent alone. Read-outs that look alike come from different tables or passages of the source.

What was measured:
[1] = Exposure study: neratinib pharmacokinetics with and without concurrent ketoconazole; details: human, in vivo, 240 mg, 240 mg neratinib
Description: (§1) Exposure studies were performed to determine if gastrointestinal tolerability is related to systemic exposure of neratinib maleate.

[2] = GI tolerability with and without concurrent ketoconazole (subjects reporting GI AEs); format: in vivo
Description: as §1
Subjects Reporting GI AEs

[3] = Gastrointestinal adverse events in single dose clinical studies of healthy subjects; format: in vivo, human; details: 192 healthy subjects, five single doses
Text: In a clinical study, 192 healthy subjects were given five single doses of neratinib maleate. Adverse events were observed and classified as follows: • Grade 1 gastrointestinal adverse events (GI AEs) ˜25%40% • Grade 2 gastrointestinal adverse events (GI AEs) ˜15%
Grade 1 and 2 gastrointestinal adverse events predominated as the adverse events observed in clinical studies of healthy subjects.

[4] = Adverse events in multiple dose clinical studies of cancer patients; format: in vivo, human; details: cancer patients (>400), single agent and combination
Text: Adverse events in clinical studies of cancer patients were observed and classified as follows: • Nausea, Vomiting, Diarrhea, Dehydration, Anorexia (˜95%) • Asthenia, Fatigue (˜30-60%) • Rash (˜20-25%) • Elevated ALT, AST (<10%)

Row | AUC(0-t) ([1]; geometric mean in brackets, read-out: AUC t [Geo mean]) [ng·h/mL] | AUC(0-inf) ([1]; geometric mean in brackets, read-out: AUC∞ [Geo mean]) [ng·h/mL] | Cmax ([1]; geometric mean in brackets, read-out: Cmax [Geo mean]) [ng/mL] | AUC(0-t) ([1]; value outside brackets, read-out: AUC t) [ng·h/mL] | AUC(0-inf) ([1]; value outside brackets, read-out: AUC∞) [ng·h/mL] | Cmax ([1]; value outside brackets, read-out: Cmax) [ng/mL] | SMILES | Subjects Reporting GI AEs: GI Disorders ([2]; 240 mg neratinib) [%] | Grade 2 gastrointestinal adverse events (GI AEs) [3] [%] | Asthenia, Fatigue [4] | Elevated ALT, AST [4] [%] | Nausea, Vomiting, Diarrhea, Dehydration, Anorexia [4] [%] | Rash [4] | GI tolerability (diarrhea) relation to systemic exposure ([2]; exposure studies with concurrent ketoconazole)
1 | 727 | 802 | 51.5 | 835 | 903 | 55.3 | CCOc1cc2ncc(C#N)c(Nc3ccc(OCc4ccccn4)c(Cl)c3)c2cc1NC(=O)/C=C/CN(C)C [Neratinib, (E)-N-(4-(3-chloro-4-(pyridin-2-ylmethoxy)phenylamino)-3-cyano-7-ethoxyquinolin-6-yl)-4-(dimethylamino) but-2-enamide] | 31.8 | – | – | – | – | – | –
2 | – | – | – | – | – | – | CCOc1cc2ncc(C#N)c(Nc3ccc(OCc4ccccn4)c(Cl)c3)c2cc1NC(=O)/C=C/CN(C)C [neratinib maleate, (E)-N-(4-(3-chloro-4-(pyridin-2-ylmethoxy)phenylamino)-3-cyano-7-ethoxyquinolin-6-yl)-4-(dimethylamino) but-2-enamide] | – | ~15 | 30-60% | < 10 | ~95 | 20-25% | not related to systemic exposure
